Where a SMILES comes first, the peptide text is derived from it.
Tests used:
κ opioid receptor = molecular target: T1, κ opioid receptor (Mus musculus, UniProt P33534); details: non-peptide KOR antagonists; cited from earlier work
T1 construct: host or cells: living animal (CNS), endogenous receptor

mice [1] = experiment: Naloxone precipitated withdrawal (jumping behavior) in morphine-treated mice; assay type: in vivo, mouse; details: five days of morphine injections; 30 mg/kg, p.o. 1 hour prior to naloxone (10 mg/kg, s.c.); FIG. 35
Method: For naloxone precipitated withdrawal or 2-bottle choice (TBC) assay testing are conducted essentially as described for example in Wilson L L, Harris H M, Brice-Tutt A C, Cirino T J, Eans S O, Stacy H M, Simons C A, Sharma A, Leon J F, Boyer E W, Avery B A, McLaughlin J P, McCurdy C M: Lyophilized Kratom tea as a therapeutic option for opioid dependence. Drug and Alcohol Dependence, 216:108310-108318, 2020. https://doi.org/10.1016/j.drugalcdep.2020.108310; and as follows;

mice [2] = experiment: Forced swim stress-induced increase in morphine consumption, two-bottle choice assay; assay type: in vivo, mouse; details: orally administered, FIG. 13
mice [3] = experiment: Reinstatement of extinguished morphine conditioned place preference (forced swim stress- or morphine-induced); assay type: in vivo, mouse; details: 30 mg/kg, p.o., FIG. 34
mice [4] = details: 3930 alone; place conditioning daily for 2 days; FIG. 33
Method: For conditioned place preference assay/reinstatement testing are conducted essentially as described for example in Brice-Tutt A C, Wilson L L, Eans S O, Stacy H M, Simons C A, Simpson G G, Coleman J S, Ferracane M J, Aldrich J V, McLaughlin J P: Multifunctional opioid receptor agonism and antagonism by a novel macrocyclic tetrapeptide prevents reinstatement of morphine-seeking behavior. British Journal of Pharmacology, 177(18):4209-4222, 2020. doi: 10.1111/bph.15165.

T1 sequence (P33534 whole entry): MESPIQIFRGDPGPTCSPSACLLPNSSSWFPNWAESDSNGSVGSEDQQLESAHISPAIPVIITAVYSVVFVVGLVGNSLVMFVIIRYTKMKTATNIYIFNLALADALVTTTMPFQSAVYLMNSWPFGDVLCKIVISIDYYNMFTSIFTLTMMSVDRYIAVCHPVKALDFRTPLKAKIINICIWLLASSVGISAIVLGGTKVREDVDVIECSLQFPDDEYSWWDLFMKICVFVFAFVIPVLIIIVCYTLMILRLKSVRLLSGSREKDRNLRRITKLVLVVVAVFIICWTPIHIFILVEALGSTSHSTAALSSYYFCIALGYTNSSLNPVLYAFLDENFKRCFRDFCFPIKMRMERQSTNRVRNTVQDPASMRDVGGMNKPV

N=C(N)Nc1ccc2[nH]c3c(c2c1)C[C@@]1(O)[C@H]2Cc4ccc(O)c5c4[C@@]1(CCN2CC1CC1)[C@H]3O5 [5-guanidinylnaltrindole]
duration of antagonism (κ opioid receptor): unusually long duration of antagonism

CC(C)[C@@H](CN1CC[C@@](C)(c2cccc(O)c2)[C@@H](C)C1)NC(=O)[C@H]1Cc2ccc(O)cc2CN1 [JDTic]
duration of antagonism (κ opioid receptor): unusually long duration of antagonism

O=C1N[C@H](Cc2ccccc2C(F)(F)F)C(=O)N[C@@H](Cc2ccccc2)C(=O)N2CCC[C@@H]2C(=O)N[C@H]1Cc1ccccc1 [compound 3930, cyclo[Phe-D-Pro-Phe-D-Phe(2-CF3)]] (HELM PEPTIDE1{F.[dP].F.[O=C([C@@H](Cc1ccccc1C(F)(F)F)N[*:1])[*:2]]}$PEPTIDE1,PEPTIDE1,1:R1-4:R2$$$V2.0)
frequency of jumping behavior following administration of naloxone (mice [1]): significantly reduced instances of jumping behavior
stress-induced increase in consumption of a morphine solution (mice [2]): can prevent a stress-induced increase in consumption of a morphine solution
stress- (forced swim stress, FSS) induced reinstatement of extinguished morphine-CPP (mice [3]; administered 5 min or 2.5 hr prior to FSS exposure): prevented stress-induced reinstatement of place preference
drug-seeking behavior after an additional round of morphine-place conditioning (mice [3]; administered 5 min prior to additional round of morphine-place conditioning): no significant effect on drug-seeking behavior
conditioned place preference or aversion (mice [4]): did not produce conditioned place preference or aversion

Oc1ccc2c3c1O[C@H]1c4[nH]c5c(c4C[C@@]4(O)[C@@H](C2)N(CC2CC2)CC[C@]314)C[C@@]1(O)[C@H]2Cc3ccc(O)c4c3[C@@]1(CCN2CC1CC1)[C@H]5O4 [nor-binaltorphimine]
duration of antagonism (κ opioid receptor): unusually long duration of antagonism
